Twelve compounds from PubChem BioAssay (NCI) can be followed below.

Among the test systems are ACHN renal; DMS 114 small cell lung; LXFL 529 NSCLC; M19-MEL melanoma; NCI-H226 lung; OVCAR-3 ovarian; SK-MEL-2 melanoma; SK-OV-3 ovarian; SNB-78 CNS; TK-10 renal; U251 CNS; UACC-257 melanoma.
Holding throughout (assay): NCI anticancer screen, dose series, 48 h

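Five concentrations, 48 hours, 96-well plates. TGI: total growth inhibition.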

Consider `COC(=O)C1=C(C(=O)OC)C2(OC(C)=O)c3ccccc3-c3ccccc3C12` (centres undefined), for which the TGI with ACHN renal is 6.48 µM; in the test with DMS 114 small cell lung, 9.89 µM; with LXFL 529 NSCLC it was 3.38 µM; with M19-MEL melanoma it was 8.79 µM; with NCI-H226 lung, 31.2 µM; in the test with OVCAR-3 ovarian, 9.94 µM. Further, the TGI with SK-MEL-2 melanoma turned out to be 29.2 µM; in the test on SK-OV-3 ovarian, 29.1 µM; in the test on SNB-78 CNS, 10.8 µM; in the test with TK-10 renal it was 8.08 µM; in the test on U251 CNS, 20.1 µM; with UACC-257 melanoma it was 11.8 µM.

`COC1=CC(=O)[C@H]2[C@H](C)C(c3ccccc3)[C@@]2(C)C1=O` (some centres undefined): the TGI in the test with ACHN renal, in the test on LXFL 529 NSCLC, with M19-MEL melanoma, in the test with OVCAR-3 ovarian, with SK-MEL-2 melanoma and in the test with SK-OV-3 ovarian was above 100 µM throughout. In addition, the TGI in the test with SNB-78 CNS, in the test with TK-10 renal and in the test with U251 CNS was above 100 µM each time.

Take `CC1=C2C(=O)[C@H]3[C@@H](CC=C4C[C@@H](O)CC[C@@]43C)[C@@H]2CC[C@]12O[C@@H]1C[C@H](C)CN[C@H]1[C@H]2C`: the TGI in the test on ACHN renal was above 56.3 µM; in the test with DMS 114 small cell lung, 41.5 µM; in the test with LXFL 529 NSCLC, 33.7 µM; in the test on M19-MEL melanoma, 85.3 µM; in the test with NCI-H226 lung it was above 61 µM; in the test with OVCAR-3 ovarian, above 56 µM. Further, the TGI in the test on SK-MEL-2 melanoma is above 72.5 µM; with SK-OV-3 ovarian, above 57.3 µM; in the test with SNB-78 CNS, 39.8 µM; in the test on TK-10 renal, above 53.8 µM; in the test on U251 CNS, above 55.5 µM; with UACC-257 melanoma it was above 71.5 µM.

`CCCC/C=C/C1Cc2ccccc2CN1S(=O)(=O)c1ccc(C)cc1` (centres undefined): the TGI in the test with ACHN renal stood at 22.5 µM; with DMS 114 small cell lung, 12.2 µM; in the test with LXFL 529 NSCLC it was 22.1 µM; in the test on M19-MEL melanoma it was 18.8 µM; with NCI-H226 lung it was 25.8 µM; in the test on OVCAR-3 ovarian, 24.1 µM. In addition, the TGI with SK-MEL-2 melanoma is above 100 µM; in the test with SK-OV-3 ovarian, 90.6 µM; in the test with TK-10 renal, 61.3 µM; with U251 CNS, 39.3 µM; with UACC-257 melanoma it was 17.9 µM.

On to `COc1nc(SC)nc2c1cnn2C1OC(C(O)CO)C(OC)C1O` (centres undefined), for which the TGI with DMS 114 small cell lung, with M19-MEL melanoma, with NCI-H226 lung, with OVCAR-3 ovarian, in the test with SK-MEL-2 melanoma and with SK-OV-3 ovarian was above 100 µM each time. The TGI in the test with SNB-78 CNS, in the test on U251 CNS and in the test with UACC-257 melanoma was above 100 µM each time.

On to `CC1CC[C@@]2(OC1)OC1C[C@H]3[C@@H]4C/C(=N\N(C)C)[C@@]5(O)CC(O)CC[C@]5(C)[C@H]4CC[C@]3(C)C1[C@@H]2C` (some centres undefined), for which the TGI in the test on ACHN renal, in the test with NCI-H226 lung, in the test on OVCAR-3 ovarian, in the test with SK-MEL-2 melanoma, in the test on SK-OV-3 ovarian and with TK-10 renal was above 100 µM throughout. Moreover, the TGI in the test on U251 CNS and with UACC-257 melanoma was above 100 µM throughout.

Turning to `CC(=O)O/N=C/c1ncccc1OC(C)=O`, the TGI with ACHN renal, with DMS 114 small cell lung, with LXFL 529 NSCLC, in the test with M19-MEL melanoma, with NCI-H226 lung and in the test on OVCAR-3 ovarian was above 100 µM in each case. The TGI in the test with SK-MEL-2 melanoma, with SK-OV-3 ovarian, with TK-10 renal, with U251 CNS and in the test on UACC-257 melanoma was above 100 µM in each case.

For the compound `Nc1nc(SCCNC(=O)CCc2ccc(O)cc2)nc2c1ncn2C1OC(CO)C(O)C1O` (centres undefined), the TGI with ACHN renal, in the test with DMS 114 small cell lung, with M19-MEL melanoma, in the test on NCI-H226 lung, in the test with OVCAR-3 ovarian and with SK-MEL-2 melanoma was above 203 µM in each case. For the same compound, the TGI in the test with SK-OV-3 ovarian, in the test with SNB-78 CNS, with TK-10 renal, with U251 CNS and in the test with UACC-257 melanoma was above 203 µM throughout.

With `COc1cc(C2C(Cl)C(=O)N2NC(=O)c2ccccc2O)ccc1O` (centres undefined), the TGI in the test on ACHN renal, with DMS 114 small cell lung, with LXFL 529 NSCLC, in the test on M19-MEL melanoma, with NCI-H226 lung and with OVCAR-3 ovarian was above 100 µM in each case. The TGI in the test on SK-MEL-2 melanoma, with SK-OV-3 ovarian, in the test with SNB-78 CNS, in the test on TK-10 renal, with U251 CNS and with UACC-257 melanoma was above 100 µM throughout.

As to `O=C(O)C1CCCN1Cc1cc2ccccc2c2ccccc12` (centres undefined), the TGI with ACHN renal, in the test on NCI-H226 lung, in the test with OVCAR-3 ovarian, with SK-MEL-2 melanoma, in the test on SK-OV-3 ovarian and in the test on TK-10 renal was above 100 µM throughout. Further, the TGI with U251 CNS and in the test with UACC-257 melanoma was above 100 µM each time.

As to `COc1ccc(N=C(C)c2ccncc2)cc1`, the TGI with ACHN renal, with NCI-H226 lung, in the test on OVCAR-3 ovarian, in the test on SK-MEL-2 melanoma, with SK-OV-3 ovarian and in the test on TK-10 renal was above 100 µM each time. Moreover, the TGI in the test on U251 CNS and in the test with UACC-257 melanoma was above 100 µM throughout.

Take `Cn1c(=O)cc(NCc2ccc(Cl)cc2)[nH]c1=O`: the TGI with ACHN renal, in the test on NCI-H226 lung, with OVCAR-3 ovarian, in the test on SK-MEL-2 melanoma, in the test with SK-OV-3 ovarian and in the test on TK-10 renal was above 100 µM throughout. Besides, the TGI in the test on U251 CNS and with UACC-257 melanoma was above 100 µM throughout.
